Test results: ChEMBL document CHEMBL1144238, “Identification and SAR around N-{2-[4-(2,3-dihydro-benzo[1,4]dioxin-2-ylmethyl)-[1,4]diazepan-1-yl]-ethyl}-2-phenoxy-nicotinamide, a selective alpha2C adrenergic receptor antagonist” (Bioorg Med Chem Lett, 2008)
One block for each compound: values may come before it.

Legend:
[1] = molecular target: T1, Alpha-2C adrenergic receptor (Homo sapiens, UniProt P18825); assay: Antagonist activity at human recombinant adrenergic Alpha-2C receptor expressed in CHO cells assessed as inhibition of NE-induced calcium mobilization by FLIPR; assay type: functional, cell-based
T1 sequence (P18825 whole entry): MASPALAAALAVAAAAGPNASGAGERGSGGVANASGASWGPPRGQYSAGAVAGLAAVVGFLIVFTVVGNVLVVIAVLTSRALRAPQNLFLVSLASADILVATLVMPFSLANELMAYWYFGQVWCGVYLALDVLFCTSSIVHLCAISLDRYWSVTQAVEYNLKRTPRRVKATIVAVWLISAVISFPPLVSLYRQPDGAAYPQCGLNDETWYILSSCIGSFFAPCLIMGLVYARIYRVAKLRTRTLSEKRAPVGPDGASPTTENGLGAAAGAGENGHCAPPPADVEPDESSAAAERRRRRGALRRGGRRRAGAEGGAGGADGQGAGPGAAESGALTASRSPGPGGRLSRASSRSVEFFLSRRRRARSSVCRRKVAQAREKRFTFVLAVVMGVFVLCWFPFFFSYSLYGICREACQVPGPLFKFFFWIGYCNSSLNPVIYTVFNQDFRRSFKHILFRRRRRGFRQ

Homo sapiens [2] = species: Homo sapiens; assay: Selectivity for human recombinant adrenergic Alpha-2C receptor over human recombinant adrenergic alpha2B receptor by radioligand binding assay
[3] = molecular target: T2, Alpha-2A adrenergic receptor (Homo sapiens, UniProt P08913); assay: Binding affinity at human recombinant adrenergic alpha2A receptor expressed in CHO cells by radioligand binding assay; assay type: cell-based
T2 sequence (P08913 whole entry): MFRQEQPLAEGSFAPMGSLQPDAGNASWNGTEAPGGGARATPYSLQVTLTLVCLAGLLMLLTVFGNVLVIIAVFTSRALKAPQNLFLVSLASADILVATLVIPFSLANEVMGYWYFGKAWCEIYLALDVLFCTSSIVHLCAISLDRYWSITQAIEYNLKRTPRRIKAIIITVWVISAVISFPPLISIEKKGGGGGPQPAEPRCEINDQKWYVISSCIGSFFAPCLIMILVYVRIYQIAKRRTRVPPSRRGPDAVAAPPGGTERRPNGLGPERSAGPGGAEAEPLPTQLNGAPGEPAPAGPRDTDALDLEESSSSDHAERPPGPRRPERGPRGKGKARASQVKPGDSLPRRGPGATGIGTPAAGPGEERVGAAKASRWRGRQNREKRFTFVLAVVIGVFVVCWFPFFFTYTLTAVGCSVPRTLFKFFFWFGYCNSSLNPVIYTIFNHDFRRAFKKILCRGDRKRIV

[4] = molecular target: T1, Alpha-2C adrenergic receptor; assay: Binding affinity at human recombinant adrenergic Alpha-2C receptor expressed in CHO cells by radioligand binding assay; assay type: cell-based
[5] = molecular target: T2, Alpha-2A adrenergic receptor; assay: Antagonist activity at human recombinant adrenergic alpha2A receptor expressed in CHO cells assessed as inhibition of NE-induced calcium mobilization by FLIPR; assay type: functional, cell-based
Homo sapiens [6] = species: Homo sapiens; assay: Selectivity for human recombinant adrenergic Alpha-2C receptor over human recombinant adrenergic alpha2A receptor by radioligand binding assay
Homo sapiens [7] = species: Homo sapiens; assay: Selectivity human recombinant adrenergic Alpha-2C receptor over human recombinant adrenergic alpha2A receptor by FLIPR
[8] = molecular target: T3, Alpha-2B adrenergic receptor (Homo sapiens, UniProt P18089); assay: Antagonist activity at human recombinant adrenergic alpha2B receptor expressed in CHO cells assessed as inhibition of NE-induced calcium mobilization by FLIPR; assay type: functional, cell-based
T3 sequence (P18089 whole entry): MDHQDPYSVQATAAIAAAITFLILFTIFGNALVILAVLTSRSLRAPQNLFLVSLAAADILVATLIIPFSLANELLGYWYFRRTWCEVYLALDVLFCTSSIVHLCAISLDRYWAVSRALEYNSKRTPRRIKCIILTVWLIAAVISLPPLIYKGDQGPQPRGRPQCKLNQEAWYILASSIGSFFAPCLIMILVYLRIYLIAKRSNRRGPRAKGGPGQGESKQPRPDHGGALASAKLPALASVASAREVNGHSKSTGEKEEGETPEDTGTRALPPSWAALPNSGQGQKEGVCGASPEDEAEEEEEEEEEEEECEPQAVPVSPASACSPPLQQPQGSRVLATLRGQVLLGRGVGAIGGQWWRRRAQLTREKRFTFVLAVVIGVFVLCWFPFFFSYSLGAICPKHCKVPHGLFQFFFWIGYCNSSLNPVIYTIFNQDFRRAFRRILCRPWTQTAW

Homo sapiens [9] = species: Homo sapiens; assay: Selectivity human recombinant adrenergic Alpha-2C receptor over human recombinant adrenergic alpha2B receptor by FLIPR
[10] = molecular target: T3, Alpha-2B adrenergic receptor; assay: Binding affinity at human recombinant adrenergic alpha2B receptor expressed in CHO cells by radioligand binding assay; assay type: cell-based
[11] = molecular target: 5-hydroxytryptamine receptor 7 (Homo sapiens) (UniProt P34969); assay: Binding affinity to human 5HT7 receptor
[12] = molecular target: 5-hydroxytryptamine receptor 1A (Homo sapiens) (UniProt P08908); assay: Binding affinity to human 5HT1A receptor
[13] = molecular target: Muscarinic acetylcholine receptor M1 (Homo sapiens) (UniProt P11229); assay: Binding affinity to human muscarinic M1 receptor at 10 uM
Chain of Muscarinic acetylcholine receptor M1 (Homo sapiens) (P11229 whole entry): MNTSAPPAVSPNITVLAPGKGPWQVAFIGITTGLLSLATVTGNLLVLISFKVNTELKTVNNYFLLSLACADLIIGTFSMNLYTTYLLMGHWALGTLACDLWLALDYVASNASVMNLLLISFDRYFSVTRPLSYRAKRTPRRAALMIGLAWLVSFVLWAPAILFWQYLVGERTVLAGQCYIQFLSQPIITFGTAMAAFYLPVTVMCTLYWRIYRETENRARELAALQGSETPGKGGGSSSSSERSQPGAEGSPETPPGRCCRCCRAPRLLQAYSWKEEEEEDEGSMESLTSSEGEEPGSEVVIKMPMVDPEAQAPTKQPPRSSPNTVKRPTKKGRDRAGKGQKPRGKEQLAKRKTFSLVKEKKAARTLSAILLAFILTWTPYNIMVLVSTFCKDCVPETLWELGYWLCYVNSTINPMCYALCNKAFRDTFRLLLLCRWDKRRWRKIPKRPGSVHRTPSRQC

[14] = molecular target: Alpha-2A adrenergic receptor (Rattus norvegicus) (UniProt P22909); assay: Binding affinity to rat adrenergic alpha2A receptor by radioligand binding assay
[15] = molecular target: Histamine H2 receptor (Homo sapiens) (UniProt P25021); assay: Binding affinity to human histamine H2 receptor
Chain of Histamine H2 receptor (Homo sapiens) (P25021 whole entry): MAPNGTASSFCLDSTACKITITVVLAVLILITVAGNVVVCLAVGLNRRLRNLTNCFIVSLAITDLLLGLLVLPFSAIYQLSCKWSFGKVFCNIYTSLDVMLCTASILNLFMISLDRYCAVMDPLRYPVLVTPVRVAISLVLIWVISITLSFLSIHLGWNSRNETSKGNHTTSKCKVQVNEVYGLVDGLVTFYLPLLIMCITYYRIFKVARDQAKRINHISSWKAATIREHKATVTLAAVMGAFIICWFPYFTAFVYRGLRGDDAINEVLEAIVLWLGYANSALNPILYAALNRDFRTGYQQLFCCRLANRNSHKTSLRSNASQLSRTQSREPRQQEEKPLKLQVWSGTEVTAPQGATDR

[16] = molecular target: Sodium-dependent serotonin transporter (Homo sapiens) (UniProt P31645); assay: Binding affinity to human SERT
[17] = molecular target: 5-hydroxytryptamine receptor 2B (Homo sapiens) (UniProt P41595); assay: Binding affinity to human 5HT2B receptor
Chain of 5-hydroxytryptamine receptor 2B (Homo sapiens) (P41595 whole entry): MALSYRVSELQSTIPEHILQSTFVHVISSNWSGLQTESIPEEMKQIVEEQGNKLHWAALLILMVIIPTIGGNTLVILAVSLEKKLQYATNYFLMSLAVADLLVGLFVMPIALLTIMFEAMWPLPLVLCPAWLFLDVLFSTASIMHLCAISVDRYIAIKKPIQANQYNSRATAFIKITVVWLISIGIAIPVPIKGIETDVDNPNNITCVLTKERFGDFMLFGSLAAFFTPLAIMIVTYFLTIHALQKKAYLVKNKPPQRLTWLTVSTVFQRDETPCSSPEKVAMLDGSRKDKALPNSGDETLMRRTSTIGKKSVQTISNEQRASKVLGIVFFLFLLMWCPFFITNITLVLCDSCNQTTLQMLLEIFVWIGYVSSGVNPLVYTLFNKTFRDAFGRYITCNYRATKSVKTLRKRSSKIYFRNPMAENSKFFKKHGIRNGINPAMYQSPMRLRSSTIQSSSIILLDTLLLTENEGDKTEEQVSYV

[18] = molecular target: Alpha-2B adrenergic receptor (Rattus norvegicus) (UniProt P19328); assay: Binding affinity to rat adrenergic alpha2B receptor by radioligand binding assay
Plasma [19] = assay: Drug level in Wistar Kyoto rat plasma at 30 mg/kg, sc; assay type: ADME, organism-based; design: dose 30 mg/kg, route subcutaneous; conditions: in vivo
[20] = molecular target: Histamine H1 receptor (Homo sapiens) (UniProt P35367); assay: Binding affinity to human histamine H1 receptor 1 uM
[21] = molecular target: Sodium-dependent dopamine transporter (Homo sapiens) (UniProt Q01959); assay: Binding affinity to human DAT
[22] = molecular target: D(2) dopamine receptor (Homo sapiens) (UniProt P14416); assay: Binding affinity to human dopamine D2 receptor
Chain of D(2) dopamine receptor (Homo sapiens) (P14416 whole entry): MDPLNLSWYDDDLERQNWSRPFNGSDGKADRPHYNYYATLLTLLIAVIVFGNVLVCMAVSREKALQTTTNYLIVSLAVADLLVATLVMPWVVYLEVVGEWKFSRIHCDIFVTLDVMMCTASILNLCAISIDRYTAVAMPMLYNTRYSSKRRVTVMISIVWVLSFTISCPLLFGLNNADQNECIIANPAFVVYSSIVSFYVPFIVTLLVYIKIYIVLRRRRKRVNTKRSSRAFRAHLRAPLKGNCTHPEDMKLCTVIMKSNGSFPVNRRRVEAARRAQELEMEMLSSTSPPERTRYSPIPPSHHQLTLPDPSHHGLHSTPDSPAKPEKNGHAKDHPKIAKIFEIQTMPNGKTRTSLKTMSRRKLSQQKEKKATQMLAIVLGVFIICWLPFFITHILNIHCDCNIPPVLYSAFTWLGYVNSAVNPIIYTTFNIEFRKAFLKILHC

[23] = molecular target: Sodium-dependent noradrenaline transporter (Homo sapiens) (UniProt P23975); assay: Binding affinity to human NET
Chain of Sodium-dependent noradrenaline transporter (Homo sapiens) (P23975 whole entry): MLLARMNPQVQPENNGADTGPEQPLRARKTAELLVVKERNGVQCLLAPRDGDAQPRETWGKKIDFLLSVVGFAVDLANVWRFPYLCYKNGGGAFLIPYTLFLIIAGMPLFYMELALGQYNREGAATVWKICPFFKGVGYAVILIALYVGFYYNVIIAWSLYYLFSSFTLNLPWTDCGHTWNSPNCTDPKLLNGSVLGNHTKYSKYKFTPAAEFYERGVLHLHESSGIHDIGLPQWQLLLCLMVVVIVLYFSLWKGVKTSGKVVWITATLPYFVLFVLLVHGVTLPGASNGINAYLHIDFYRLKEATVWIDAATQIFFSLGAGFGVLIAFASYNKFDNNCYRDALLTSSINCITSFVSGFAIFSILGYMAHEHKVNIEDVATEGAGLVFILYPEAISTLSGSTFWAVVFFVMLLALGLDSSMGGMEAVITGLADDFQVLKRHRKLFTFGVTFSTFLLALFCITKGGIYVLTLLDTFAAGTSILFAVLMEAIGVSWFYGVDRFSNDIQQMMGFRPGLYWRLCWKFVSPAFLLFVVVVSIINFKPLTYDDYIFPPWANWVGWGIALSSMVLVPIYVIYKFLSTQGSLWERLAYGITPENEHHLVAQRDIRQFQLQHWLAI

Plasma [24] = assay: Drug level in Wistar Kyoto rat plasma at 10 mg/kg, sc; assay type: ADME, organism-based; design: dose 10 mg/kg, route subcutaneous; conditions: in vivo
[25] = molecular target: D(3) dopamine receptor (Homo sapiens) (UniProt P35462); assay: Binding affinity to human dopamine D3 receptor
Chain of D(3) dopamine receptor (Homo sapiens) (P35462 whole entry): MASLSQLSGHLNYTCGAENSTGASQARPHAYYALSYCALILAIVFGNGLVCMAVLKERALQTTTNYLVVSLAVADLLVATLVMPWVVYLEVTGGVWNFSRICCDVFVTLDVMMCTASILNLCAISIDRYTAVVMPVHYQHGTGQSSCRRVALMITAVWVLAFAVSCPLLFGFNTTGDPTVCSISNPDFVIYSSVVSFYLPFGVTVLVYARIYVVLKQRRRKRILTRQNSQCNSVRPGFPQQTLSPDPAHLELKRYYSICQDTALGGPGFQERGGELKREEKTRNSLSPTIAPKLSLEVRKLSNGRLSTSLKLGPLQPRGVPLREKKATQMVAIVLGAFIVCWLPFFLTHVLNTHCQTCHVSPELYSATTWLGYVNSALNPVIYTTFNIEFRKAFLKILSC

[26] = molecular target: 5-hydroxytryptamine receptor 1B (Homo sapiens) (UniProt P28222); assay: Binding affinity to human 5HT1B receptor at 10 uM
Chain of 5-hydroxytryptamine receptor 1B (Homo sapiens) (P28222 whole entry): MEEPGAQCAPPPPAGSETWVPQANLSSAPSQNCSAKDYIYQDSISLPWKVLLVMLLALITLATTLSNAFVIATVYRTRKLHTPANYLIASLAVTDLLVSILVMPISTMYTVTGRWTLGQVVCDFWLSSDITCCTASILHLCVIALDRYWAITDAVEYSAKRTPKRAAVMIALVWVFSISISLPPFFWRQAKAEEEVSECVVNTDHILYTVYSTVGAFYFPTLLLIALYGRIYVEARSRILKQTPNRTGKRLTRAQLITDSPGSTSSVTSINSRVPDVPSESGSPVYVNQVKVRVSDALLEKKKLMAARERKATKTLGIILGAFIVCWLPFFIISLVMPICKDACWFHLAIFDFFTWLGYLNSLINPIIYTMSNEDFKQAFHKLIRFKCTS

[27] = molecular target: Muscarinic acetylcholine receptor M2 (Homo sapiens) (UniProt P08172); assay: Binding affinity to human muscarinic M2 receptor
Chain of Muscarinic acetylcholine receptor M2 (Homo sapiens) (P08172 whole entry): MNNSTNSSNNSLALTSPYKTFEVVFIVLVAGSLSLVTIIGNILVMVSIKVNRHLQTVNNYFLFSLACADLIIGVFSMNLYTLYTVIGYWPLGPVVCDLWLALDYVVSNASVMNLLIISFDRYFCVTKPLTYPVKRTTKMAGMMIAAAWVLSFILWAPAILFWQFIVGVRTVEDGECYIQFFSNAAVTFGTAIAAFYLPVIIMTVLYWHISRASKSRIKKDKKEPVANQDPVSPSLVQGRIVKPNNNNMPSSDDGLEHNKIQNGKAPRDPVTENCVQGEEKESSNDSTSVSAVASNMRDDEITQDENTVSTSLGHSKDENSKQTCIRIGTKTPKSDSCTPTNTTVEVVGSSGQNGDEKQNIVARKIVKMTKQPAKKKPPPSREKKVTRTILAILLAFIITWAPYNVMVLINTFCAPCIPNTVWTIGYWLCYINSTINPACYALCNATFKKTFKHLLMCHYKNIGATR

Cerebrospinal fluid [28] = assay: Drug level in Wistar Kyoto rat cerebro spinal fluid at 10 mg/kg, sc; assay type: ADME, organism-based; design: dose 10 mg/kg, route subcutaneous; conditions: in vivo
Brain [29] = assay: Drug level in Wistar Kyoto rat brain at 10 mg/kg, sc; assay type: ADME, organism-based; design: dose 10 mg/kg, route subcutaneous; conditions: in vivo
[30] = molecular target: 5-hydroxytryptamine receptor 2A (Homo sapiens) (UniProt P28223); assay: Binding affinity to human 5HT2A receptor
[31] = molecular target: Muscarinic acetylcholine receptor M3 (Homo sapiens) (UniProt P20309); assay: Binding affinity to human muscarinic M3 receptor at 10 uM
Plasma [32] = assay: Drug level in Wistar Kyoto rat plasma at 3 mg/kg, sc; assay type: ADME, organism-based; design: dose 3 mg/kg, route subcutaneous; conditions: in vivo
Brain [33] = assay: Drug level in Wistar Kyoto rat brain at 30 mg/kg, sc; assay type: ADME, organism-based; design: dose 30 mg/kg, route subcutaneous; conditions: in vivo
Cerebrospinal fluid [34] = assay: Drug level in Wistar Kyoto rat cerebro spinal fluid at 30 mg/kg, sc; assay type: ADME, organism-based; design: dose 30 mg/kg, route subcutaneous; conditions: in vivo
[35] = molecular target: Alpha-1A adrenergic receptor (Homo sapiens) (UniProt P35348); assay: Binding affinity to human adrenergic alpha1A receptor
Chain of Alpha-1A adrenergic receptor (Homo sapiens) (P35348 whole entry): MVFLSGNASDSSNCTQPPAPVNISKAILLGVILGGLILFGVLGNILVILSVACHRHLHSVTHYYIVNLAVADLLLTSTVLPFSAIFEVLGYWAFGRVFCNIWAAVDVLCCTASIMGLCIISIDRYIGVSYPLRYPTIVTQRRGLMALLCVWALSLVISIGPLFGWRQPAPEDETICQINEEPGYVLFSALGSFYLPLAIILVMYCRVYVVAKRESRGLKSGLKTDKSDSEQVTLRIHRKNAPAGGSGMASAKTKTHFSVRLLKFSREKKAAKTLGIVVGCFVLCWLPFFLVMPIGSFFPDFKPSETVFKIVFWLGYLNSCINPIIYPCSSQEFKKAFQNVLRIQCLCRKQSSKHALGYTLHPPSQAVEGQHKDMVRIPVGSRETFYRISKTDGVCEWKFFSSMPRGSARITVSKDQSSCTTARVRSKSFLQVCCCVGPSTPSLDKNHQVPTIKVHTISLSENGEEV

[36] = molecular target: D(4) dopamine receptor (Homo sapiens) (UniProt P21917); assay: Binding affinity to human dopamine D4 receptor at 1 uM
Chain of D(4) dopamine receptor (Homo sapiens) (P21917 whole entry): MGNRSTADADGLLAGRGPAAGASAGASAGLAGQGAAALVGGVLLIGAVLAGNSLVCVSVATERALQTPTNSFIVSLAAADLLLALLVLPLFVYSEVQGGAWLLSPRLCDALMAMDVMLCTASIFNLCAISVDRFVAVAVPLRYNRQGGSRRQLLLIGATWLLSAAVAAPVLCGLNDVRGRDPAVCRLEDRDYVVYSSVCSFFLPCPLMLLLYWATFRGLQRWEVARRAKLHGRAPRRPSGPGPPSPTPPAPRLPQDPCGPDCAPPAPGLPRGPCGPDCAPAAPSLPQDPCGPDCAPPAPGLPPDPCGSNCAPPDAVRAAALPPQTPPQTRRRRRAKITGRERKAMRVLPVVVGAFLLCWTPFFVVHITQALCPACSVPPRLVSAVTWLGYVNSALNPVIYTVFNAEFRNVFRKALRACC

Brain [37] = assay: Drug level in Wistar Kyoto rat brain at 3 mg/kg, sc; assay type: ADME, organism-based; design: dose 3 mg/kg, route subcutaneous; conditions: in vivo
Cerebrospinal fluid [38] = assay: Drug level in Wistar Kyoto rat cerebro spinal fluid at 3 mg/kg, sc; assay type: ADME, organism-based; design: dose 3 mg/kg, route subcutaneous; conditions: in vivo
[39] = molecular target: Alpha-2C adrenergic receptor (Rattus norvegicus) (UniProt P22086); assay: Binding affinity to rat adrenergic Alpha-2C receptor by radioligand binding assay
Chain of Alpha-2C adrenergic receptor (Rattus norvegicus) (P22086 whole entry): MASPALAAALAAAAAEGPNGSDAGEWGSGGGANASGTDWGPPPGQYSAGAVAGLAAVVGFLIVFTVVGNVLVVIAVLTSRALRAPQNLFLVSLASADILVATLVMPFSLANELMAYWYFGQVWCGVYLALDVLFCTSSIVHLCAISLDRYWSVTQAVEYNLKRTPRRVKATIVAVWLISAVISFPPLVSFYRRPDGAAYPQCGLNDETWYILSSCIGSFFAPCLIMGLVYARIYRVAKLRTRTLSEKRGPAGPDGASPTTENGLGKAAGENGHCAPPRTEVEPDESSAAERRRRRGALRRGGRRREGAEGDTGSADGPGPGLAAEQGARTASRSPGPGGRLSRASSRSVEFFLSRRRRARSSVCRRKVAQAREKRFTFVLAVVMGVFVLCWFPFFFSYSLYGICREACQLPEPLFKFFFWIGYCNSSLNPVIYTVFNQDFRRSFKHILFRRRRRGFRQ

Compound: O=C(NCCN1CCCN(CC2COc3ccccc3O2)CC1)c1cccnc1Oc1ccccc1 (stereo not given)
Ki [1]: 25 nM
Ratio Ki (Homo sapiens [2]): 10
Ki [3]: 220 nM
Ki [4]: 5 nM
Ki [5]: 474 nM
Ratio Ki (Homo sapiens [6]): 44
Ratio Ki (Homo sapiens [7]): 19
Ki [8]: 132 nM
Ratio Ki (Homo sapiens [9]): 5
Ki [10]: 49 nM

Compound: c1ccc(CN2CCN(CC3COc4ccccc4C3)CC2)cc1 (stereo not given)
Ki [3]: > 500 nM
Ki [4]: > 500 nM
Ki [10]: > 500 nM

Compound: O=C(NCCN1CCN(CC2COc3ccccc3O2)CC1)c1cccnc1Oc1ccccc1 (stereo not given)
Ratio Ki (Homo sapiens [2]): 3
Ki [3]: 27 nM
Ki [4]: 3 nM
Ratio Ki (Homo sapiens [6]): 9
Ki [10]: 8 nM

Compound: O=C(NCCN1CCCN(C[C@@H]2COc3ccccc3O2)CC1)c1cccnc1Oc1ccccc1
Ratio Ki (Homo sapiens [2]): 12
Ki [4]: 9.2 nM
Ratio Ki (Homo sapiens [6]): 53

Compound: O=C(NCCN1CCCN(C[C@H]2COc3ccccc3O2)CC1)c1cccnc1Oc1ccccc1
Ki [1]: 1.9 nM
Ratio Ki (Homo sapiens [2]): 16
Activity [11]: 530 nM
Activity [12]: 141 nM
Activity [13]: 4%
Activity [14]: 177 nM
Activity [15]: 1900 nM
Activity [16]: 1480 nM
Ki [3]: 94.4 nM
Activity [17]: 690 nM
Activity [18]: 7.6 nM
Cp (Plasma [19]): 6190 ng/mL
Ki [4]: 0.9 nM
Activity [20]: 33%
Activity [21]: 3.48 µM
Activity [22]: 820 nM
Activity [23]: 1790 nM
Cp (Plasma [24]): 2100 ng/mL
Activity [25]: 75 nM
Ki [5]: > 442 nM
Ratio Ki (Homo sapiens [6]): 106
Activity [26]: 44%
Activity [27]: 1600 nM
Ratio Ki (Homo sapiens [7]): > 232
Drug uptake (Cerebrospinal fluid [28]): 26.9 ng/mL
Drug uptake (Brain [29]): 630 ngequiv/g
Activity [30]: 2400 nM
Activity [31]: 27%
Cp (Plasma [32]): 744 ng/mL
Drug uptake (Brain [33]): 2230 ngequiv/g
Drug uptake (Cerebrospinal fluid [34]): 113 ng/mL
Activity [35]: 59 nM
Ki [8]: 31.3 nM
Activity [36]: 10%
Ratio Ki (Homo sapiens [9]): 16
Drug uptake (Brain [37]): 173 ngequiv/g
Drug uptake (Cerebrospinal fluid [38]): 7.39 ng/mL
Ki [10]: 14.3 nM
Activity [39]: 1.7 nM

Now from value to compound:

Ki [1]: 30.5 nM
Ratio Ki (Homo sapiens [2]): 58
Ki [3]: 138 nM
Ki [4]: 0.5 nM
Ki [5]: 366 nM
Ratio Ki (Homo sapiens [6]): 286
Ratio Ki (Homo sapiens [7]): 12
Ki [8]: 103 nM
Ratio Ki (Homo sapiens [9]): 3
Ki [10]: 28 nM
Compound: CC(C)(C)Nc1ncccc1C(=O)NCCN1CCCN(CC2COc3ccccc3O2)CC1 (stereo not given)

Ki [1]: 1.7 nM
Ratio Ki (Homo sapiens [2]): 8
Ki [3]: 44.8 nM
Ki [4]: 1.9 nM
Ki [5]: 15.4 nM
Ratio Ki (Homo sapiens [6]): 23
Ratio Ki (Homo sapiens [7]): 9
Ki [8]: 5.2 nM
Ratio Ki (Homo sapiens [9]): 3
Ki [10]: 15.3 nM
Compound: c1ccc(Oc2ncccc2-c2noc(CN3CCCN(CC4COc5ccccc5O4)CC3)n2)cc1 (stereo not given)
